What was measured:
[1] = molecular target: T1, M receptors for serotonin (Oryctolagus cuniculus, UniProt A0A5F9C9J3); experiment: isolated rabbit vagus nerve test (serotonin reduction of C fibre compound action potential); conditions: antagonism of serotonin on C fibre action potential, read-out: pA2 in the vagus nerve test (converted)
T1 construct: isolated rabbit vagus nerve; from tissue; host or cells: isolated rabbit vagus nerve
T1 sequence (A0A5F9C9J3 1-494): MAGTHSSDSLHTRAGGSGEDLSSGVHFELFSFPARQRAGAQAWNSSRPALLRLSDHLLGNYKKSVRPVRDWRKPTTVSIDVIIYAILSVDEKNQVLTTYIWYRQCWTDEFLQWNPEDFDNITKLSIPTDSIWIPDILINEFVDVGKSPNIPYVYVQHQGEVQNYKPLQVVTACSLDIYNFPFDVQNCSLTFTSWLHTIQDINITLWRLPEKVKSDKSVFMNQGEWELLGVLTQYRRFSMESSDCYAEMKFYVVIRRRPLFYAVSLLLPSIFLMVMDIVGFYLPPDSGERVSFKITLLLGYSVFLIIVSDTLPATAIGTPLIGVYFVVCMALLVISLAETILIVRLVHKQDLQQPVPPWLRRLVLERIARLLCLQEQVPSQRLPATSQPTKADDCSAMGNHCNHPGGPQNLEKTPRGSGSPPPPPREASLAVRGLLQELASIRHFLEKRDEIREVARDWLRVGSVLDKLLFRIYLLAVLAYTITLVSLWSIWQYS
Excerpt: For example, in one test the action of the compounds in inhibiting the action of serotonin in reducing the amplitude of the compound action potential from the isolated rabbit vagus nerve was observed according to the principles of Riccioppo Neto, European Journal of Pharmacology (1978) 49 351-356, under conditions permitting differentation between action potentials generated in myelinatd nerve fibres (A fibres) and those generated in small non-myelinated fibres (C fibres) as described by B. Oakley and R. Schater, Experimental Neurobiology, A Laboratory Manual, University of Michigan Press, 1978, p.85 to 96. Serotonin itself exerts its effect selectively on the C-fibres progressively with dosage. This action of serotonin is not blocked by the known serotonin antagonists, metitepine, methysergide, BOL - 148, which have been said to block D receptors for serotonin, but not M receptors (see Gaddam and Picarlli, Brit.J.Pharmacol. (1957), 12, 323-328). It therefore appears that serotonin reduces the amplitude of the action potential carried by the C fibres through an effect mediated by M receptors for serotonin which are located on these nerve fibres.
The test may be effected by establishing a dose response curve for serotonin (10^-7 -5×10^-6 M) after setting up the nerve. […]

[2] = tested on: migraine attack; conditions: slow i.v. injection of 10 mg; reported by J. B. Hughes 1977; cited from earlier work
[3] = molecular target: T1, M receptors for serotonin; conditions: isolated rabbit vagus nerve; known serotonin D receptor antagonists; cited from earlier work
[4] = tested on: serotonin M receptor; conditions: human volunteers, forearm blister; serotonin D receptor antagonists; cited from earlier work

| Structure (SMILES) | Kb [1] | block of the action of serotonin on the C fibre action potential [3] | inhibition of the algesic action of serotonin on the blister base [4] | also measured |
| --- | --- | --- | --- | --- |
| CCN(CC)CCNC(=O)c1cc(Cl)c(N)cc1OC [metoclopramide, Metoclopramide] | 50.1 nM | – | – | effect on a migraine attack [2]: immediate effect |
| CSc1ccc2c(c1)C(N1CCN(C)CC1)Cc1ccccc1S2 (centres unmarked) [metitepine] | – | not blocked | – | – |
| CN1C[C@H]2CCC[C@@H](C1)[C@@H]2OC(=O)c1c[nH]c2ccccc12 [Example 2] | 6.31 nM | – | – | – |
| CC[C@@H](CO)NC(=O)[C@@H]1C=C2c3cccc4c3c(cn4C)C[C@H]2N(C)C1 [methysergide] | – | not blocked | – | – |
| CCN(CC)C(=O)[C@@H]1C=C2c3cccc4[nH]cc(c34)C[C@H]2N(C)C1 [lysergic acid diethylamide] | – | – | not inhibited | – |
| CCN(CC)C(=O)[C@@H]1C=C2c3cccc4[nH]c(Br)c(c34)C[C@H]2N(C)C1 [BOL - 148] | – | not blocked | not inhibited | – |

Reference: patent US4797406A, “Amides and esters containing bridged piperidines and use as serotonin M antagonists” (Sandoz Ltd., priority 1983, dated 1989)
